The values below are quoted from earlier work in the CATMoS acute toxicity set (Mansouri et al. 2021).

“And” between values parts separate entries of the source, which are not always exact repeats. Equal entries are not always repeated.

This data set can be described thus: rat acute oral toxicity. The note with it: in vivo.
What is called LD50 is the dose expected to kill half of the subjects tested. In the case of `COc1ccccc1C1=CCN(CC=Cc2ccc3c(c2)CCC(=O)N3)CC1`, the median lethal dose (LD50) was 500 mg/kg.
For `CCOP(=S)(OCC)SC1CCOC1=O` (configuration not stated), the median lethal dose (LD50) was 1000 mg/kg.
With `c1cncc(C2=NCCC2)c1`, the median lethal dose (LD50) is 1880 mg/kg.
For `C=CCSCC=C`, the 50% lethal dose (LD50) was 2980 mg/kg.
Regarding `N#Cc1ccc(C2CCCc3cncn32)cc1` (configuration not stated), the 50% lethal dose (LD50) is 200 mg/kg.
In the case of `CC(Oc1c(Cl)cccc1Cl)C1=NCCN1` (configuration not stated), the LD50 was 70 mg/kg.
With `CC[P+](c1ccccc1)(c1ccccc1)c1ccccc1`, the median lethal dose (LD50) was 200 mg/kg and 79 mg/kg.
As to `CCCCCOc1cccc(NC(=O)O[C@@H]2CCCC[C@H]2N2CCCC2)c1`, the 50% lethal dose (LD50) was 1030 mg/kg.
Consider `CN(C)C(=N)NC#N`, for which the LD50 is 3840 mg/kg.
Turning to `CCOP(=O)(OCC)O/C(=C\Cl)c1cc(Cl)ccc1Cl`, the 50% lethal dose (LD50) was 35 mg/kg.
As for `CC(C)(CO)NCC(O)c1ccccc1` (configuration not stated), the LD50 was 2080 mg/kg.
Take `CCC1CCC(CC)O1` (configuration not stated): the LD50 was 3400 mg/kg.
Turning to `CN(C)CCN(Cc1ccccc1)c1ccccn1`, the LD50 is 469 mg/kg.
For the compound `C#CCN1C(=O)CN=C(c2ccccc2)c2cc([N+](=O)[O-])ccc21`, the LD50 was 876 mg/kg.
Regarding `CN1CCN(C2=Nc3ccccc3Cc3ccccc32)CC1`, the median lethal dose (LD50) is 660 mg/kg.
As to `CCOc1ccc(N(N=O)C(C)=O)cc1`, the median lethal dose (LD50) is 21 mg/kg.
Turning to `OC(c1ccccc1)C1CCCCC1` (configuration not stated), the LD50 is 9300 mg/kg.
With `CCOC(=O)C1=C(C)NC(C)=C(C(=O)OC)C1c1cccc([N+](=O)[O-])c1` (configuration not stated), the LD50 is 15400 mg/kg.
Regarding `COP(=S)(OC)SCSc1ccc(Cl)cc1`, the LD50 was 48 mg/kg.
For the compound `O=C1C=CC(=NCl)C=C1`, the median lethal dose (LD50) was 100 mg/kg.
For the compound `COC(=O)[C@H]1[C@H]2C[C@@H]3c4[nH]c5cc(OC)ccc5c4CCN3C[C@H]2C[C@@H](OC(=O)c2cc(OC)c(OC)c(OC)c2)[C@@H]1OC`, the median lethal dose (LD50) is 420 mg/kg.
For `C=CS(C)(=O)=O`, the LD50 was 570 mg/kg.
With `CCN1C[C@]2(COC)[C@H](O)C[C@H](OC)[C@]34C1[C@H]([C@H](OC)[C@H]23)[C@]1(OC(C)=O)[C@H]2[C@@H](OC(=O)c3ccccc3)[C@](O)(C[C@H]24)[C@@H](OC)[C@@H]1O`, the LD50 was 5.97 mg/kg.
`CCOP(=O)(OCC)OC(=CBr)c1ccc(Cl)cc1Cl`: the LD50 is 21.4 mg/kg.
Turning to `Nc1ccc(Oc2ccc(S(=O)(=O)c3ccc(Oc4ccc(N)cc4)cc3)cc2)cc1`, the median lethal dose (LD50) is 220 mg/kg.
Turning to `Cc1cc(OC(=O)N(C)C)nn1C(=O)N(C)C`, the LD50 was 25 mg/kg.
For `CN(C)CCOc1ccc(/C(=C(/CCCl)c2ccccc2)c2ccccc2)cc1`, the LD50 is 1700 mg/kg and 3000 mg/kg.
For `CCCCOC(=O)CC(C(=O)OCCCC)P(=O)(OCCCC)OCCCC` (configuration not stated), the LD50 was 25000 mg/kg.
For `CCCCNC(=N)NC(=N)N`, the LD50 is 320 mg/kg.
Regarding `CC(=O)CCc1ccc(-c2ccccc2)cc1`, the LD50 is 1030 mg/kg.
In the case of `CC(C)(C(=O)O)S(C)(=O)=O`, the median lethal dose (LD50) was 5700 mg/kg.
Turning to `COc1ccc(N)cc1N`, the 50% lethal dose (LD50) was 460 mg/kg.
For `Clc1ccc(CSC(Cn2cncn2)=Nc2ccc(Cl)cc2Cl)cc1`, the 50% lethal dose (LD50) is 2800 mg/kg.
With `O=C(OCC(O)CO)c1ccccc1Nc1ccnc2c(C(F)(F)F)cccc12` (configuration not stated), the LD50 was 535 mg/kg.
Turning to `CCN(CC)C(=O)CSc1ccc(Cl)nn1`, the 50% lethal dose (LD50) is 1550 mg/kg.
`O=P(O)(O)Oc1ccccc1`: the median lethal dose (LD50) is 2290 mg/kg.
Regarding `O=Nc1ccc(N=O)cc1`, the median lethal dose (LD50) was 1020 mg/kg.
With `COc1cc(N)cn[n+]1-c1ccccc1`, the median lethal dose (LD50) is 1330 mg/kg.
For `OCCOCc1ccccc1`, the LD50 was 1190 mg/kg.
Consider `CCCCNCCO`, for which the 50% lethal dose (LD50) was 1150 mg/kg.
`CN(CCCl)c1ccc(C=CC2=[N+](C)c3ccccc3C2(C)C)cc1`: the LD50 is 2260 mg/kg.
On to `C=CCCCCCCCCC(=O)O`, for which the LD50 is 2500 mg/kg.
In the case of `CC[C@@]1(O)C(=O)OCc2c1cc1n(c2=O)Cc2cc3ccccc3nc2-1`, the LD50 was 153 mg/kg.
As for `COc1cc(CCC(C)=O)ccc1O`, the LD50 is 2580 mg/kg.
Regarding `O=S(=O)(O)c1c(O)ccc2ccccc12`, the 50% lethal dose (LD50) is 3170 mg/kg.
As for `C=CCOc1ccccc1C(=O)N(C)C`, the LD50 is 740 mg/kg.
Consider `CC(C)(C)CCCCCCC(=O)O`, for which the LD50 is 2070 mg/kg.
